Laboratory results taken from patent US9708255B2, “(bis)urea and (bis)thiourea compounds as epigenic modulators of lysine-specific demethylase 1 and methods of treating disorders” (priority 2009, dated 2017).
Each block holds one compound with its values, some of them ahead of it.

Key:
[1] = system: global H3K4me2; details: P19 cell line; cited from earlier work
[2] = molecular target: recombinant human LSD1 (Homo sapiens, UniProt O60341); assay: LSD1 demethylase assay, luminol-dependent chemiluminescence (H2O2 production); details: read-out: % LSD1 activity remaining, treatment with each analogue at 10 μM
Method: Percent of LSD1 activity remaining was determined following 24-hour treatment with 10 mM of each test compound as determined by the luminol-dependent chemiluminescence method.
The ability of the target (bis)ureas and (bis)thioureas to inhibit LSD1 was determined in an assay procedure utilizing the recombinant human enzyme. Expression and purification of LSD1 were conducted as previously reported. Enzymatic activity of LSD1 in the presence of target compounds was determined using luminol-dependent chemiluminescence to measure the production of H2O2, as previously described. […] Full-length human LSD1 cDNA was subcloned into the pET15b bacterial expression vector (Novagen, Madison, Wis.) in frame with an N-terminal 6×HIS-tag and transformed into the BL21(DE3) strain of Escherichia coli. Following selection, expression and purification of recombinant LSD1 protein were performed as previously described. Briefly, expression of LSD1-HIS protein was induced by 1 mM IPTG for 6 h at 25° C. The HIS-tagged protein was purified using Ni-NTA affinity purification resin and column as recommended by the manufacturer (Qiagen, Valencia, Calif.). Bound protein was eluted by imidazole and the eluate was dialyzed in PBS at 4° C. […] The integral values were calibrated against standards containing known concentrations of H2O2, and the activities expressed as pmols H2O2/mg protein/min. […]

[3] = system: SFRP2 mRNA; assay: Re-expression of SFRP2 mRNA by qPCR in Calu-6 cells; type: cell-based, human; details: Calu-6, 24 hours; for dose dependence of SFRP2 expression increase: 5 vs 10 μM
Source text: (§1) The ability of compounds 25-27 to induce the re-expression of aberrantly silenced tumor suppressor genes in vitro was next measured using the Calu-6 human lung carcinoma cell line. The tumor suppressor genes SFRP2 and GATA4 were chosen because they are known to be under expressed in human lung cancer, and because they are thought to play a role in tumorigenesis when silenced. Thus, the genes coding for these proteins are well-documented LSD1 targets. […]. […]. The increase in GATA4 mRNA caused by […] 27 is reproducible, but is not statistically significant (P>0.05).
(§2) RNA was extracted using TRIzol reagents (Invitrogen, Carlsbad, Calif.). First-strand cDNA was synthesized using SuperScript III reverse transcriptase with an oligo(dT) primer (Invitrogen). qPCR was performed using the following primers: SFRP2 sense, 5′AAGCCTGCAAAAATAAAAATGATG; SFRP2 antisense, 5′TGTAAATGGTCTTGCTCTTGGTCT (annealing at 57.4° C.); GATA4 sense, 5′GGCCGCCCGACACCCCAATCT; GATA4 antisense, 5′ ATAGTGACCCGTCCCATCTCG (annealing at 64° C.). qPCR was performed in a MyiQ single color real-time PCR machine (Bio-Rad, Hercules, Calif.) with GAPDH as an internal control.

[4] = system: global H3K4me2; assay: Global H3K4me2 level by quantitative Western blot in Calu-6 cells; type: cell-based, human; details: Calu-6, 10 μM
Method: (§3) FIG. 2. Effect of compounds 25-27 on the expression of global H3K4me1 and H3K4me2. […] Proliferating cell nuclear antigen (PCNA) was used as a loading control. Shown are Western blot images from a single representative experiment performed in triplicate. Relative protein expression levels were determined by quantitative Western analysis using the Odyssey infrared detection system shown as bar graphs. The results represent the mean of three treatments ±SD. The protein expression level for control samples was set to a value of 1.
(§4) The ability of the target (bis)ureas and (bis)thioureas to inhibit LSD1 was determined in an assay procedure utilizing the recombinant human enzyme. Expression and purification of LSD1 were conducted as previously reported. Enzymatic activity of LSD1 in the presence of target compounds was determined using luminol-dependent chemiluminescence to measure the production of H2O2, as previously described. The results of these experiments are summarized in Table 1, and graphically in FIG. 1. […] Subsequent experiments were conducted in the Calu-6 human anaplastic non-small cell lung carcinoma line because it has a highly reproducible response to epigenetic modulation, and because it is known that various tumor suppressor genes are silenced in this line. In order for synthetic analogues to be effective at the cellular level, any observed decreases in cellular LSD1 activity should be accompanied by an increase in global H3K4me1 and H3K4me2 content. […] The reduction in H3K4me2 and corresponding increase in H3K4me1 by 26 at both 24 and 48 hours cannot be readily explained, and is the subject of continuing investigation.
(§5) Cytoplasmic and nuclear fractions were prepared for Western blot analysis using the NE-PER™ Nuclear and Cytoplasmic Extraction Kit (Pierce, Rockford, Ill.). Primary antibodies against H3K4me2 were from Millipore. The pCNA monoclonal antibody was purchased from Oncogene Research Products (Cambridge, Mass.). Dye-conjugated secondary antibodies were used for quantification of Western blot results using the Odyssey Infrared Detection system and software (LI-COR Biosciences, Lincoln, Nebr.).

[5] = system: global H3K4me2; assay: Global H3K4me2 in HCT116 human colon tumor cells; type: cell-based; details: HCT116 human colon tumor cells (data not shown)
[6] = system: GATA4 mRNA; assay: Re-expression of GATA4 mRNA by qPCR in Calu-6 cells; type: cell-based, human; details: Calu-6, 24 hours; for effect on GATA4 levels: 5 and 10 μM
Source text: as §1, §2

[7] = system: global H3K4me1; assay: Global H3K4me1 level by quantitative Western blot in Calu-6 cells; type: cell-based, human; details: Calu-6, 10 μM
Method: as §3, §4, §5

[8] = molecular target: recombinant LSD1/CoRest complex (Homo sapiens, UniProt O60341); details: cited from earlier work

SMILES: N[C@@H]1C[C@H]1c1ccccc1 (racemic) [tranylcypromine]
global levels of H3K4me2 [1]: increase

remaining activity at 10 µM [2]: 92.2%
SMILES: S=C(NCCCNCCCNCCCNC(=S)NCCC(c1ccccc1)c1ccccc1)NCCC(c1ccccc1)c1ccccc1 [Compound 20, 1,11-bis-{3-[1-(3,3-diphenylpropyl)thioureado]}-4,8-diazaundecane]

SMILES: S=C(NCCCNCCCCCCCNCCCNC(=S)NCC(c1ccccc1)c1ccccc1)NCC(c1ccccc1)c1ccccc1 [Compound 25, 1,15-bis-{3-[1-(2,2-diphenylethyl)thioureado]}-4,12-diazapentadecane]
dose dependence of SFRP2 expression increase [3]: dose dependent | global H3K4me2 level ([4]; 24 hours): significant increases | global H3K4me2 level ([4]; 48 hours): most dramatic increases | increase in global H3K4me2 [5]: 17.4 fold | effect on GATA4 levels [6]: did not produce significant increases | global H3K4me1 level ([7]; 24 hours): significant increases | global H3K4me1 level ([7]; 48 hours): most dramatic increases

SMILES: S=C(NCCCNCCCCNCCCNC(=S)NCC(c1ccccc1)c1ccccc1)NCC(c1ccccc1)c1ccccc1 [Compound 26, 1,12-bis-{3-[1-(2,2-diphenylethyl)thioureado]}-4,9-diazadodecane]
dose dependence of SFRP2 expression increase [3]: same level | global H3K4me2 level ([4]; 24 hours): decreased | global H3K4me2 level ([4]; 48 hours): reduction | effect on GATA4 levels [6]: did not produce significant increases | global H3K4me1 level ([7]; 24 hours): significant increase | global H3K4me1 level ([7]; 48 hours): increase

SMILES: S=C(NCCCNCCCNCCCNC(=S)NCC(c1ccccc1)c1ccccc1)NCC(c1ccccc1)c1ccccc1 [Compound 27, 1,11-bis-{3-[1-(2,2-diphenylethyl)thioureado]}-4,8-diazaundecane]
increase in SFRP2 expression ([3]; 10 mM (so in the source)): 4.8 fold | dose dependence of SFRP2 expression increase [3]: dose dependent | global H3K4me2 level ([4]; 24 hours): significant increases | effect on GATA4 mRNA ([6]; 5 μM): no significant effect | increase in GATA4 mRNA ([6]; 10 μM (b97 prints 10 mM)): 1.3 fold | global H3K4me1 level ([7]; 24 hours): significant increases

remaining activity at 10 µM [2]: 26.1%
SMILES: O=C(NCCCNCCCCNCCCNC(=O)NC(=O)N(c1ccccc1)c1ccccc1)NC(=O)N(c1ccccc1)c1ccccc1 [Compound 31, 1,12-bis-{5-[1-(N,N-diphenyl)carbamyl]ureado}-4,9-diazadodecane]

SMILES: NNCCc1ccccc1 [phenelzine]
nucleosomal demethylation [8]: inactivate | global levels of H3K4me2 [1]: increase
